These results are taken from US8377884B2, “Variants of C-type natriuretic peptides” (Biomarin Pharmaceutical Inc., priority 2007, dated 2013).

As a reminder, the half-life is the time needed for the level to fall by half in the phase considered. One may read the AUC as the area under the concentration-time curve, a measure of exposure. Low values mean low exposure, high ones high exposure. For orientation: bioavailability means the share of a dose that reaches the circulation, judged against a reference dose that is usually intravenous.

Structures are written as SMILES. Bridge positions count the residues as written; N and C are the ends. Peptide text beside a SMILES is read from it. * marks the point of attachment. MeO(CH2CH2O)23CH2CH2CO = COCCOCCOCCOCCOCCOCCOCCOCCOCCOCCOCCOCCOCCOCCOCCOCCOCCOCCOCCOCCOCCOCCOCCOCCC(=O)*

One data set deals with Recombinant human NEP (Homo sapiens, UniProt P08473). As to the kind of experiment: In vitro neutral endopeptidase (NEP) cleavage assay. Conditions: NEP digestion for […] in vitro. The gist of the method:
(§1)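 Recombinant human NEP (1 ug/mL final) incubated with 100 uM CNP variant in 0.1 M Tris, pH 7, at 37° C for various times, then quenched with EDTA (10 mM final) and heat. Samples reduced and analysed by HPLC and mass spectrometry. Half-life derived from loss of intact variant over time.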

The target in data set [1] is neutral endopeptidase (NEP) (Homo sapiens, UniProt P08473). The data set is described as above. As to conditions: human, pH 7. The gist of the method:
as §1

The target in data set [2] is T1, NPR-B (Mus musculus, UniProt Q6VVW5).
T1 construct: Murine NIH3T3 cells express endogenously the CNP signaling receptor, NPR-B; endogenous in cells; host or cells: NIH3T3 (murine fibroblasts)
T1 sequence (Q6VVW5 17-1047): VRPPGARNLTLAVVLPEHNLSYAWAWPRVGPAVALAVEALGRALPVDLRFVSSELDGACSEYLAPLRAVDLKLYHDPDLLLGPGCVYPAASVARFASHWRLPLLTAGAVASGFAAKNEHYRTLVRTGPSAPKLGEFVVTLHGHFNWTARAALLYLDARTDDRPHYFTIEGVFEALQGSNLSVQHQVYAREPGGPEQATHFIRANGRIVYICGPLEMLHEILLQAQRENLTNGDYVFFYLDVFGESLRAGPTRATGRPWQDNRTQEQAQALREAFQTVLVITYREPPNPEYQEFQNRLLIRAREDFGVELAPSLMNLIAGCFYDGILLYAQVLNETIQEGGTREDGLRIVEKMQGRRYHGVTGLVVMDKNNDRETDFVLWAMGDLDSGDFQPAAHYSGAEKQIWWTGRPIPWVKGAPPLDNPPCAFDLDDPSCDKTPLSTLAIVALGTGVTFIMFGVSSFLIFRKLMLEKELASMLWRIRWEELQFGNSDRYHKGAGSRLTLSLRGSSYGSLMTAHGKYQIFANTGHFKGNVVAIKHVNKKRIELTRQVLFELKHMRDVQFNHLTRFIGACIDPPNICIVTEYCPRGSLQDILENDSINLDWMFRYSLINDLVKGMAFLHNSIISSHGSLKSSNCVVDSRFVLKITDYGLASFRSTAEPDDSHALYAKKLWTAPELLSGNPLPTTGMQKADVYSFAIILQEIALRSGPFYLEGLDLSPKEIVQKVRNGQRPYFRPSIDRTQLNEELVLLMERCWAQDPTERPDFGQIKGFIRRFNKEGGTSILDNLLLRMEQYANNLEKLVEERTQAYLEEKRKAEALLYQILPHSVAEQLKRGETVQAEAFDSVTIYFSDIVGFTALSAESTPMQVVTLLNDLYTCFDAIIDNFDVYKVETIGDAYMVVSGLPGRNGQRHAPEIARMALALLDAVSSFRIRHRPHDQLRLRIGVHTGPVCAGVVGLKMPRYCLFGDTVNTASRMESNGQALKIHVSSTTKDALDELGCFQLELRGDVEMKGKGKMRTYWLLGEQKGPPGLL
The data set can be described thus: Stimulation of cGMP production in NIH3T3 cells. The format is cell-based, Murine. As to conditions: NIH3T3 cells, normalized to cell number and cGMP production with 1 uM wtCNP22; for cGMP response relative to 1 uM CNP22 (%) at 0.01 µM: 10 nM natriuretic peptide, read-out: cGMP Response rel. to 1 uM CNP22, 10 nM; for cGMP response relative to 1 uM CNP22 (%) at 1 µM: 1 uM natriuretic peptide, read-out: cGMP Response rel. to 1 uM CNP22, 1 uM.

A short description of data set [3]: Pharmacokinetics in normal rats after single i.v. or s.c. administration. As to conditions: male, rat. The method, then: Studies were conducted in normal rats to evaluate the pharmacokinetics (PK) profile of CNP22 and certain CNP variants and the time courses of plasma cGMP concentration after single intravenous (i.v.) or subcutaneous (s.c.) administration of the CNP peptides. Plasma CNP immunoreactivity was determined by using a competitive radioimmunoassay (RIA) with an anti-CNP rabbit polyclonal antibody. Plasma cGMP concentration was determined by RIA using a commercially available kit (YAMASA cyclic GMP Assay kit, YAMASA Corporation).
Normal male rats, 7-8 weeks of age, were used. Recombinant wild-type CNP22, CNP37 and PEO24-CNP27(Arg4) (i.e., PEO24-GANRR-CNP22(K4R)) were evaluated. A dosage of 20 nmol/kg of each CNP peptide as a solution in 5% mannitol was intravenously injected once into the tail, or a dosage of 50 nmol/kg of each CNP peptide as a solution in 0.03 mol/L acetic acid buffer solution, pH 4.0, containing 1% (w/v) benzyl alcohol and 10% (w/v) sucrose, was subcutaneously injected once into the back.
Plasma CNP immunoreactivity was determined by the competitive RIA using anti-CNP rabbit polyclonal antibody. Standard and QC samples were prepared. Fifty uL of the standard, QC and assay samples were added, respectively, to test tubes containing 50 uL of RIA buffer. Diluted anti-CNP rabbit polyclonal antibody (100 uL) was added to the tubes. All tubes were kept at 4° C. overnight. ^125I-[Tyr^0]-CNP22 solution (100 uL) and rabbit IgG solution (100 uL) were added and left at approximately 4° C. overnight. One milliliter of anti-rabbit IgG goat serum containing 10% polyethylene glycol was added, vortexed and left at approximately 4° C. for at least 1 hour, and then the insoluble fraction was precipitated by centrifugation. After aspiration of the supernatant, the amount of radiation (gamma line) in the sediment was measured by a gamma-counter. Each sample was measured in duplicate, and the mean was adopted as the value determined.
Plasma CNP immunoreactivity was employed for pharmacokinetics (PK) analysis. PK analysis was performed using WINNONLIN® Professional (Pharsight Corporation). The PK profiles of CNP22, CNP37 and PEO24-CNP27(Arg4) after i.v. administration were calculated using PK parameters such as concentration at 0 hour (C0: extrapolation, pmol/mL), total body clearance (CLtot: mL/min/kg), distribution volume at steady state (Vdss: mL/kg), area under the plasma concentration-time curve (AUC: pmol·min/mL), mean residence time (MRT: min), and half-life (T1/2: min). The PK profiles of the CNP peptides after s.c. administration were calculated using PK parameters such as maximum plasma concentration (Cmax: pmol/mL), time to reach Cmax (Tmax: min), area under the plasma concentration-time curve (AUC: pmol·min/mL), mean residence time (MRT: min), and half-life (T1/2: min).

The next data set can be described thus: in vivo. As to conditions: FVB/N, mouse, plasma, iv, 100 nmol/kg. The procedure: To determine CNP variants having increased NEP resistance, for efficacy study in FGFR3^ach mice (see Example 11), a pharmacokinetics (PK) study is carried out that compares the pharmacokinetics properties of CNP variants to wild-type CNP22. The FGFR3^ach mouse is a mutant mouse model of achondroplasia, containing a single transgene on a background of FVB mice.
Wild-type CNP22 or variant thereof is administered as a single intravenous (i.v.) dose in 6-week old wild-type FVB mice. Exemplary PK studies were conducted using wtCNP22. Six-week old FVB/N mice were intravenously administered wtCNP22 in a single dose at 100 nmol/kg.

Data set [4] concerns the target NPR-B (Homo sapiens, UniProt P20594). Conditions: read-out: affinity to NPR-B; cited from earlier work.
The target of another data set is NPR-C (Homo sapiens, UniProt P17342). Conditions: read-out: affinity to NPR-C; cited from earlier work.
Sequence of NPR-C (P17342 27-541, species assumed): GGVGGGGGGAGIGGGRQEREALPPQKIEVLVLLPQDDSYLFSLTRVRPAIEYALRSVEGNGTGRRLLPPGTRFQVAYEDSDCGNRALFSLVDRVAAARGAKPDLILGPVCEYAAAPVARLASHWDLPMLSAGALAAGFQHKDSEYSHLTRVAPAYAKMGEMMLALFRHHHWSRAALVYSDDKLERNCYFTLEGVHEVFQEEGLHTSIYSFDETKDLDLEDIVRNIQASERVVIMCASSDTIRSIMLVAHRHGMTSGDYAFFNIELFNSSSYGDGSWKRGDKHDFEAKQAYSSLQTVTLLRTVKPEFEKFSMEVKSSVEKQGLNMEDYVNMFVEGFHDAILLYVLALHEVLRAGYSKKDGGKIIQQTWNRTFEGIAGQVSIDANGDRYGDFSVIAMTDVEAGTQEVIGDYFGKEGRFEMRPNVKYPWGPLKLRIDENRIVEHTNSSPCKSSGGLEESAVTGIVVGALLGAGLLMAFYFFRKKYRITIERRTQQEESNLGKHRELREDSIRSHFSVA

Sequence of neutral endopeptidase (NEP) (P08473 whole entry): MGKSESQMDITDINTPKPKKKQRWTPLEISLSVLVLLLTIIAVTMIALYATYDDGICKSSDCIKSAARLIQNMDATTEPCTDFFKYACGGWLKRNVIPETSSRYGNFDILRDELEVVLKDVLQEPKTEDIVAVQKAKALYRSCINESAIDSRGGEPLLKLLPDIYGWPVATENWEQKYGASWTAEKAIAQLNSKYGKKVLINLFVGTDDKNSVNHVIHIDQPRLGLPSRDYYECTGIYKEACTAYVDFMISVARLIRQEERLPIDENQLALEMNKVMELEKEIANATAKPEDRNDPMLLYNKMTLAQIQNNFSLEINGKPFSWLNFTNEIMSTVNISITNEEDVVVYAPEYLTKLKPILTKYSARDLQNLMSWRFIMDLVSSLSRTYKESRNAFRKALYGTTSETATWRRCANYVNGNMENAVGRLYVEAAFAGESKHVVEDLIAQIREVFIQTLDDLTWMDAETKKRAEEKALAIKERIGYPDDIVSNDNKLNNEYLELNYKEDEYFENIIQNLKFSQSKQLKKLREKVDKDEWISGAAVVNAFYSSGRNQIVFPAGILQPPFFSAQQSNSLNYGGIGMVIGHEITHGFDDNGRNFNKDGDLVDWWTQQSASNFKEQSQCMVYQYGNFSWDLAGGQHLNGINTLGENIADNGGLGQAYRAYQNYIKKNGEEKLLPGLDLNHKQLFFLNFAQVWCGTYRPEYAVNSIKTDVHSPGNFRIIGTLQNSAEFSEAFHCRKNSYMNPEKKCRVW
Sequence of Recombinant human NEP (P08473 whole entry): as above
Sequence of NPR-B (Homo sapiens, UniProt P20594) (P20594 23-1047, species assumed): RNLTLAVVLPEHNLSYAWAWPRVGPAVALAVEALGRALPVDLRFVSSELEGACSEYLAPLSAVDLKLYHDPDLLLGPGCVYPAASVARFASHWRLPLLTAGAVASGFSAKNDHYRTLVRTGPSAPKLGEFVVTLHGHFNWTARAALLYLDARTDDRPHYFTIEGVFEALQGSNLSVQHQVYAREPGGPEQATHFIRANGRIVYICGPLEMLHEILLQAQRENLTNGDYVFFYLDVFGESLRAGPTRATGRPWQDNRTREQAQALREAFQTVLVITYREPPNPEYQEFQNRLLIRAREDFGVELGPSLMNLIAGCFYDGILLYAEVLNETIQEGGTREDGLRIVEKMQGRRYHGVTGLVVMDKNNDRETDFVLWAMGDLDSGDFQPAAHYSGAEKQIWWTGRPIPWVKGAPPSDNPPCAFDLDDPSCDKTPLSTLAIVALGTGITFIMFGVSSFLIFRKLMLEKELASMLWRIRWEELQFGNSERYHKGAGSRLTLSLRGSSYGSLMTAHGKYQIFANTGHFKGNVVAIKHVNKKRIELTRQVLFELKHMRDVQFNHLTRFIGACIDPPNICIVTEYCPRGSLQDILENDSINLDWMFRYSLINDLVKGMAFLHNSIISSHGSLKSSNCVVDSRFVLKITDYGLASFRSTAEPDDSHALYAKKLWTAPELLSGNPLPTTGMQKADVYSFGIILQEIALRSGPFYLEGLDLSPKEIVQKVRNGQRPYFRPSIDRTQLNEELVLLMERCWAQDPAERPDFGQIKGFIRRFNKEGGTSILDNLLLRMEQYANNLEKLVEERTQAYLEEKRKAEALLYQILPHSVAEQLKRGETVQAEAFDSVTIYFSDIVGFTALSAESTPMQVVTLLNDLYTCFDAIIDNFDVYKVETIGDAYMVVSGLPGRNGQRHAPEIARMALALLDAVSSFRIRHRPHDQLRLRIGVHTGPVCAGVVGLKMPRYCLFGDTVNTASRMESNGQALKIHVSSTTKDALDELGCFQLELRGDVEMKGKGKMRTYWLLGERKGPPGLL

Regarding `CC[C@H](C)[C@@H]1NC(=O)[C@H](CCCNC(=N)N)NC(=O)[C@H](CC(=O)O)NC(=O)[C@H](CC(C)C)NC(=O)[C@H](CCCCN)NC(=O)[C@H](CC(C)C)NC(=O)CNC(=O)[C@H](Cc2ccccc2)NC(=O)[C@@H](NC(=O)CNC(=O)[C@H](CCCCN)NC(=O)[C@H](CO)NC(=O)[C@H](CC(C)C)NC(=O)CN)CSSC[C@@H](C(=O)O)NC(=O)CNC(=O)[C@H](CC(C)C)NC(=O)CNC(=O)[C@H](CO)NC(=O)[C@H](CCSC)NC(=O)[C@H](CO)NC(=O)CNC1=O` [CNP22, CNP-22], at Recombinant human NEP, the “sites hydrolyzed on NEP digestion” value is recorded as “all possible sites were unexpectedly hydrolyzed”. In data set [1], the half-life at 100 uM worked out at 80 min. Moreover, on NPR-B [2], the cGMP response relative to 1 uM CNP22 (%) at 0.01 µM is 46 ± 10%. In addition, the cGMP response relative to 1 uM CNP22 (%) at 1 µM on NPR-B [2] came out at 100 ± 13%. This compound gave an AUC in data set [3] (in vivo, iv, 20 nmol/kg) of 5.33 nM·h. Further, the half-life in data set [3] (in vivo, iv, 20 nmol/kg) was 1.42 min; in data set [3] (in vivo, sc, 50 nmol/kg) it was 10 min; in “in vivo”, 0.76 to 1.03 min. Moreover, the bioavailability in data set [3] (in vivo, sc, 50 nmol/kg) is 19%. Moreover, the Kd on NPR-B [4] is 0.007 to 0.03 nM; at NPR-C, 0.011 to 0.14 nM.
With `CC[C@H](C)[C@@H]1NC(=O)[C@H](CCCNC(=N)N)NC(=O)[C@H](CC(=O)O)NC(=O)[C@H](CC(C)C)NC(=O)[C@H](CCCCN)NC(=O)[C@H](CC(C)C)NC(=O)CNC(=O)[C@H](Cc2ccccc2)NC(=O)[C@@H](NC(=O)CNC(=O)[C@H](CCCNC(=N)N)NC(=O)[C@H](CO)NC(=O)[C@H](CC(C)C)NC(=O)CNC(=O)[C@H](CCCNC(=N)N)NC(=O)[C@H](CCCNC(=N)N)NC(=O)[C@H](CC(N)=O)NC(=O)[C@H](C)NC(=O)CNC(=O)CCOCCOCCOCCOCCOCCOCCOCCOCCOCCOCCOCCOCCOCCOCCOCCOCCOCCOCCOCCOCCOCCOCCOCCOC)CSSC[C@@H](C(=O)O)NC(=O)CNC(=O)[C@H](CC(C)C)NC(=O)CNC(=O)[C@H](CO)NC(=O)[C@H](CCSC)NC(=O)[C@H](CO)NC(=O)CNC1=O` [PEO24-GANRR-CNP22, K4R (CNP27)] ({MeO(CH2CH2O)23CH2CH2CO}-GANRRGLSRGCFGLKLDRIGSMSGLGC-OH; disulfide 11-27), the half-life at 100 uM in data set [1] is more than 160 min. Also, on NPR-B [2], the cGMP response relative to 1 uM CNP22 (%) at 0.01 µM is 28 ± 9% and the cGMP response relative to 1 uM CNP22 (%) at 1 µM is 82 ± 18%. Besides, the half-life in data set [3] (iv, 20 nmol/kg) came out at 22.3 min. In data set [3] (sc, 50 nmol/kg), this compound showed a bioavailability of 60% and a half-life of 78.1 min.
